Data from article PMC11101630.

Tests used:
[1] = system: RhoBAST WT (RNA, aptamer) GGAACCUCCGCGAAAGCGGUGAAGGAGAGGCGCAAGGUUAACCGCCUCAGGUUCC; assay: ITC; conditions: K+ 100 mM, Mg2+ 0.5 mM; 20 mM Tris-HCl pH 7.5, 25 °C; no binding observed without Mg2+
[2] = system: RhoBAST A50U (RNA, aptamer) GGAACCUCCGCGAAAGCGGUGAAGGAGAGGCGCAAGGUUUACCGCCUCAGGUUCC; assay: ITC; conditions: K+ 100 mM; Mg2+ concentration not given; 20 mM Tris-HCl pH 7.5, 25 °C, nM inferred from ΔG
[3] = system: RhoBAST A51U (RNA, aptamer) GGAACCUCCGCGAAAGCGGUGAAGGAGAGGCGCAAGGUUAUCCGCCUCAGGUUCC; assay: ITC; conditions: K+ 100 mM; Mg2+ concentration not given; 20 mM Tris-HCl pH 7.5, 25 °C, nM inferred from ΔG
[4] = system: RhoBAST C52A (RNA, aptamer) GGAACCTCCGCGAAAGCGGUGAAGGAGAGGCGCAAGGUUAAACGCCUCAGGUUCC; assay: ITC; conditions: K+ 100 mM; Mg2+ concentration not given; 20 mM Tris-HCl pH 7.5, 25 °C; 46 x K of WT
[5] = system: RhoBAST A36C (RNA, aptamer) GGAACCUCCGCGAAAGCGGUGAAGGCGAGGCGCAAGGUUAACCGCCUCAGGUUCC; assay: ITC; conditions: K+ 100 mM; Mg2+ concentration not given; 20 mM Tris-HCl pH 7.5, 25 °C; 40 x K of WT
[6] = system: RhoBAST U30C/A36C (RNA, aptamer) GGAACCUCCGCGAAAGCGGCGAAGGCGAGGCGCAAGGUUAACCGCCUCAGGUUCC; assay: ITC; conditions: K+ 100 mM; Mg2+ concentration not given; 20 mM Tris-HCl pH 7.5, 25 °C; 28 x K of WT
[7] = system: RhoBAST A36U (RNA, aptamer) GGAACCUCCGCGAAAGCGGUGAAGGUGAGGCGCAAGGUUAACCGCCUCAGGUUCC; assay: ITC; conditions: K+ 100 mM; Mg2+ concentration not given; 20 mM Tris-HCl pH 7.5, 25 °C; 3.5 x K of WT
[8] = system: RhoBAST G46A (RNA, aptamer) GGAACCUCCGCGAAAGCGGUGAAGGAGAGGCGCAAAGUUAACCGCCUCAGGUUCC; assay: ITC; conditions: K+ 100 mM; Mg2+ concentration not given; 20 mM Tris-HCl pH 7.5, 25 °C; 6.2 x K of WT
[9] = system: RhoBAST G47A (RNA, aptamer) GGAACCUCCGCGAAAGCGGUGAAGGAGAGGCGCAAGAUUAACCGCCUCAGGUUCC; assay: ITC; conditions: K+ 100 mM; Mg2+ concentration not given; 20 mM Tris-HCl pH 7.5, 25 °C; 26.8 x K of WT
[10] = system: RhoBAST U48C (RNA, aptamer) GGAACCUCCGCGAAAGCGGUGAAGGAGAGGCGCAAGGCUAACCGCCUCAGGUUCC; assay: ITC; conditions: K+ 100 mM; Mg2+ concentration not given; 20 mM Tris-HCl pH 7.5, 25 °C; 1.3 x K of WT
[11] = system: RhoBAST U49A (RNA, aptamer) GGAACCUCCGCGAAAGCGGUGAAGGAGAGGCGCAAGGUAAACCGCCUCAGGUUCC; assay: ITC; conditions: K+ 100 mM; Mg2+ concentration not given; 20 mM Tris-HCl pH 7.5, 25 °C; 100 x K of WT
[12] = system: RhoBAST A33G (RNA, aptamer) GGAACCUCCGCGAAAGCGGUGAGGGAGAGGCGCAAGGUUAACCGCCUCAGGUUCC; assay: ITC; conditions: K+ 100 mM; Mg2+ concentration not given; 20 mM Tris-HCl pH 7.5, 25 °C; similar to WT
[13] = system: RhoBAST A33C (RNA, aptamer) GGAACCUCCGCGAAAGCGGUGACGGAGAGGCGCAAGGUUAACCGCCUCAGGUUCC; assay: ITC; conditions: K+ 100 mM; Mg2+ concentration not given; 20 mM Tris-HCl pH 7.5, 25 °C; similar to WT
[14] = system: RhoBAST C8G (RNA, aptamer) GGAACCUGCGCGAAAGCGGUGAAGGAGAGGCGCAAGGUUAACCGCCUCAGGUUCC; assay: ITC; conditions: K+ 100 mM; Mg2+ concentration not given; 20 mM Tris-HCl pH 7.5, 25 °C; affinity not prominently reduced
[15] = system: RhoBAST G37A (RNA, aptamer) GGAACCUCCGCGAAAGCGGUGAAGGAAAGGCGCAAGGUUAACCGCCUCAGGUUCC; assay: ITC; conditions: K+ 100 mM; Mg2+ concentration not given; 20 mM Tris-HCl pH 7.5, 25 °C; affinity not prominently reduced
[16] = system: RhoBAST ∆U7 (RNA, aptamer) GGAACCCCGCGAAAGCGGUGAAGGAGAGGCGCAAGGUUAACCGCCUCAGGUUCC; assay: ITC; conditions: K+ 100 mM; Mg2+ concentration not given; 20 mM Tris-HCl pH 7.5, 25 °C; affinity not prominently reduced
[17] = system: RhoBAST G31C (RNA, aptamer) GGAACCTCCGCGAAAGCGGUCAAGGAGAGGCGCAAGGUUAACCGCCUCAGGUUCC; assay: ITC; conditions: K+ 100 mM; Mg2+ concentration not given; 20 mM Tris-HCl pH 7.5, 25 °C; 100 μM TMR-DN titrated into 10 μM RNA
[18] = system: RhoBAST C52G (RNA, aptamer) GGAACCTCCGCGAAAGCGGUGAAGGAGAGGCGCAAGGUUAAGCGCCUCAGGUUCC; assay: ITC; conditions: K+ 100 mM; Mg2+ concentration not given; 20 mM Tris-HCl pH 7.5, 25 °C; 100 μM TMR-DN titrated into 10 μM RNA
[19] = system: RhoBAST G35C/C52G (RNA, aptamer) GGAACCTCCGCGAAAGCGGUGAAGCAGAGGCGCAAGGUUAAGCGCCUCAGGUUCC; assay: ITC; conditions: K+ 100 mM; Mg2+ concentration not given; 20 mM Tris-HCl pH 7.5, 25 °C; 100 μM TMR-DN titrated into 10 μM RNA
[20] = system: RhoBAST G35A (RNA, aptamer) GGAACCTCCGCGAAAGCGGUGAAGAAGAGGCGCAAGGUUAACCGCCUCAGGUUCC; assay: ITC; conditions: K+ 100 mM; Mg2+ concentration not given; 20 mM Tris-HCl pH 7.5, 25 °C; 100 μM TMR-DN titrated into 10 μM RNA
[21] = system: RhoBAST G47C (RNA, aptamer) GGAACCUCCGCGAAAGCGGUGAAGGAGAGGCGCAAGCUUAACCGCCUCAGGUUCC; assay: ITC; conditions: K+ 100 mM; Mg2+ concentration not given; 20 mM Tris-HCl pH 7.5, 25 °C; 100 μM TMR-DN titrated into 10 μM RNA
[22] = system: RhoBAST L2-U1 (L2'-U1; RhoBAST-U1A Loop) (RNA, aptamer) GGAACCUCCGCCCAUUGCACUCCGGGCGGUGAAGGAGAGGCGCAAGGUUAACCGCCUCAGGUUCC; assay: X-ray crystal structure, 2.75 Å; conditions: Mg2+; co-crystal with U1A protein
[23] = system: RhoBAST L2-U1 (L2'-U1; RhoBAST-U1A Loop) (RNA, aptamer) GGAACCUCCGCCCAUUGCACUCCGGGCGGUGAAGGAGAGGCGCAAGGUUAACCGCCUCAGGUUCC; assay: binding assay in Supplementary Fig. 1b; conditions: K+ 100 mM, Mg2+ 10 mM assumed; 20 mM Tris-HCl pH 7.5, 25 °C, nM inferred from ΔG high affinity as wild type
[24] = system: RhoBAST L3'-U1 (RNA, aptamer) GGAACCUCCGCGAAAGCGGUGAAGGAGAGGCCAUUGCACUCCGGCCUCAGGUUCC; assay: binding assay in Supplementary Fig. 1b
[25] = biological target: U1A (U1 RNA-binding protein, co-crystallization chaperone) (human, UniProt P09012 1-102); assay: ITC; TMR-DN presence in this assay not stated; ITC: 20 mM Tris-HCl pH 7.5, 100 mM KCl, 0-10 mM MgCl2, 25 C (described for RNA-fluorophore titrations; U1A conditions not separately given); conditions: protein: recombinant; four-way junction; U1A hairpin loop
Chain of U1A (U1 RNA-binding protein, co-crystallization chaperone) (P09012 1-102): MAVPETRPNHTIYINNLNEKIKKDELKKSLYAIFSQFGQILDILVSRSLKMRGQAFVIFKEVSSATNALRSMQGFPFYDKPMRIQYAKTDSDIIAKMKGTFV

CN(C)c1ccc2c(-c3ccc(C(=O)NCCOCCOCCNc4ccc([N+](=O)[O-])cc4[N+](=O)[O-])cc3C(=O)[O-])c3ccc(=[N+](C)C)cc-3oc2c1
KD [1]: ~ 24 nM | KD [2]: 3590 nM | KD [3]: 1060 nM | KD [4]: 1600 nM | KD [5]: 1400 nM | KD [6]: 976 nM | KD [7]: 122 nM | KD [8]: 217 nM | KD [9]: 931 nM | KD [10]: 45.5 nM | KD [11]: 3.51 µM | KD [12]: 35.1 nM | KD [13]: 65.5 nM | KD [14]: 47 nM | KD [15]: 83 nM | KD [16]: 56.9 nM | binding [17]: no | binding [18]: no | binding [19]: no | binding [20]: no | binding [21]: no | binding [22]: yes | KD [23]: 35.5 ± 5.69 nM | binding [24]: no

B1: RhoBAST-U1A Loop (L2'-U1) (structured_RNA)
RNA: GGAACCUCCGCCCAUUGCACUCCGGGCGGUGAAGGAGAGGCGCAAGGUUAACCGCCUCAGGUUCC
Kd [25]: 7.94 ± 1.74 nM
